For data set [1], the target named is T1, Cathepsin B (Homo sapiens, UniProt P07858). The experiment in a line: Degradation on incubation with Cathepsin B: Mw loss and drug release profile from PGA-conjugate. The conditions noted are these: Cathepsin B (5 U), pH 6 buffer, 37°C; for 50% drug release t: determined by HPLC; for 50% Mw Loss t: determined by Size Exclusion Chromatography (SEC). The data set is classed as in vitro ADME. On the procedure:
Aqueous solutions of I.1 (1 mg/mL) were prepared, and an aliquot (100 µL) was added to a polypropylene tube and made up to 1 mL with water. The pH of the samples was adjusted to 8 with ammonium formate buffer (100 µL, 1 M, pH 8.5), and then CHCl3 (5 mL) was added. Samples were then thoroughly extracted by vortexing (3 x 10 sec). The […] layer was carefully removed and the solvent was evaporated under N2. The dry residue was dissolved in 200 µL of HPLC grade acetonitrile. In parallel the same procedure was carried out for the parent compound II.1 (using 200µL of a 1 mg/mL stock aqueous solution). Addition of 1 mL of acetonitrile to redissolve the product gave a 200 µg/mL stock from which a range of concentrations was prepared (2 to 100 µg/mL). The free amount of drug in the conjugates was determined by HPLC using a Lichrospher® C18 (150 x 3.9 mm) column. Flow rate 1 mL/min using an acetonitrile gradient in aqueous 0.1 % TFA (from 10 to 90% of acetonitrile in 25 min). The retention time was tr = 22.5 min for II.1 (λ = 220 nm) and tr = 22.0 for II.2.
Cathepsin B (5 U) was added last to a solution of 3 mg PGA or PGA-conjugate I in 1 mL of a pH 6 buffer composed by 20 mM sodium acetate, 2 mM EDTA and 5 mM DTT. Incubation was carried out at 37°C. Aliquots (150 µL) were taken at times up to 72 h, immediately frozen in liquid nitrogen, and stored frozen in the dark until assayed by HPLC (analysis of 100 µL aliquots after extraction procedure) and/or GPC (direct analysis of 50 µL aliquots). In control experiments polymers were incubated in buffer alone (without addition of cathepsin B) to assess non-enzymatic hydrolytic cleavage. In addition, free drug (0.75 mg/mL) was also incubated under same conditions and later used as the reference control. HPLC Evaluation of Released Drug (VIIIa, I.1 or I.2) The extraction method described above to determine free drug content of the conjugate samples was also used here. Mass analysis of the released compounds was carried out by MALDI TOF TOF. GPC Evaluation of Polymer Mw loss. The 50 µL aliquots were diluted up to 200 µL with buffer (PBS) and the Mw determined by GPC using PEG standards. Generally degradation profiles for biomedical polymers are obtained under constant sink conditions and the results correlated with mass loss of the polymer. Since PGA polymers are water soluble, the relative peak areas used in the GPC derived molecular weight calculations provided a suitable alternative to indicate the relative amount of the polymer that remained at each timepoint. As the polymer degraded there was a notable loss of I (PGA-conjugate) molecular weight. Therefore, the loss with time of the area under the curve (AUC) for I and PGA (XII) was considered to evaluate the rate of backbone degradation. […]
On the technique in general: SEC sorts molecules by how far they enter the pores of the column.

A further data set deals with Caspase activity. The experiment in a line: Caspase inhibition assay (time-dependent, Ac-DEVD-afc substrate) in cultured cells. The data set is classed as cell-based. The conditions noted are these: Saos-2, 50 µM drug-eq., apoptosis induced by doxycyclin 2 µM, vs non-treated cells. As to the method:
The time-dependent inhibition of caspase induced by the compounds described in this invention was analyzed. Cell lines were grown in the presence or absence of compounds (50 µM) at different times. Caspase activity was assayed using Saos-2 or U937 cultured cell lines and Ac-DEVD-afc (N-acetyl-Asp-Glu-Val-Asp-afc(7-amino-4-trifluoromethyl coumarin)) as substrate (20 µM). For Saos-2 cell line, apoptosis induction was carried out by the addition of doxycyclin 2 µM; in the case of U937, apoptosis was induced by doxorubicin 0.25 µM. Caspase activity was continuously monitored by the liberation of fluorescent afc using a Cytofluor 4000 fluorimeter (excitation 400 nm; emission 508 nm) for 2 hour. The effect of the compounds on the caspase activity was expressed as the percentage of inhibition in the fluorescence signal of treated cells vs the non-treated cells (control). As control is shown the activity of the previously described conjugate with diglycil linker (named as diglycil)

Data set [2] has as its target T1, Cathepsin B. Particulars: reference value from Vicent MJ and Pérez-Payá, J. Med. Chem. 2006, 49, 3763-3765, cited from earlier work.

Marks after values point to notes of the source that are not given here.

Data on three substances can be found in patent publication EP1994944A1, “Polymer conjugate compounds for the inhibition of apoptosis” (Laboratorios SALVAT, S.A., priority 2007, dated 2008).

“Poly-L-glutamic acid [2-(2-Amino-3-phenylpropionylamino)-N-{[({carbamoylmethyl-[2-(2,4-dichlorophenyl)ethyl]carbamoyl}methyl)-(3,3-diphenylpropyl)carbamoyl]-methyl}-N-[2-(2,4-dichlorophenyl)ethyl]-3-methylbutyramide] conjugate [I.1]”: the “50% drug release t” value with Cathepsin B [1] worked out at 0.7 h. Moreover, in the data set with Cathepsin B [1], the “50% Mw Loss t” value is recorded as 5 h. Moreover, the “% Caspase Inhibition” value in the data set with Caspase activity (Time 24 h) came out at 23%; in the data set with Caspase activity (Time 48 h), 65%; in the data set with Caspase activity (Time 72 h), 100%.

On to “Poly-L-glutamic acid [2-Amino-4-methylpentanoic acid (1-{{[({carbamoylmethyl-[2-(2,4-dichlorophenyl)ethyl]carbamoyl}methyl)-(3,3-diphenylpropyl)carbamoyl]methyl}-[2-(2,4-dichlorophenyl)ethyl]carbamoyl}-2-methylpropyl)amide] conjugate [I.2]”, for which the “50% drug release t” value in the data set with Cathepsin B [1] is recorded as 20 h. In addition, in the data set with Cathepsin B [1], the “50% Mw Loss t” value was 30 h. Further, the entries for the “% Caspase Inhibition” value in the data set on Caspase activity (Time 24 h), with Caspase activity (Time 48 h) and in the data set with Caspase activity (Time 72 h) were 65%, 100% and 100%, respectively.

With “Poly-L-glutamic acid [2-Amino-pentanoic acid (1-{{[({carbamoyl[2-(2,4-chlorophenyl)ethyl]carbamoyl}methyl)-(3,3-diphenylpropyl)carbamoyl]methyl}-[2-(2,4-dichlorophenyl)ethyl]carbamoyl}-2-methylpropyl)amide] conjugate [diglycil, reference compound]”, the “50% drug release t (h)” value with Cathepsin B [2] (determined by HPLC) is on record as 30^c h. Besides, in the data set with Cathepsin B [2] (determined by SEC), the “50% Mw Loss t (h)” value was 60^c h. For the same substance, the “% Caspase Inhibition” value with Caspase activity (Time 24 h) is listed as 67%; in the data set with Caspase activity (Time 48 h), 72%; in the data set with Caspase activity (Time 72 h), 100%.
